Molecules are shown by their SMILES.

Sequence of interaction between GST-MAGEA11 MHD and FAM-PCF11_4 peptide (MAGE-A11:PCF11) (P43364 218-429): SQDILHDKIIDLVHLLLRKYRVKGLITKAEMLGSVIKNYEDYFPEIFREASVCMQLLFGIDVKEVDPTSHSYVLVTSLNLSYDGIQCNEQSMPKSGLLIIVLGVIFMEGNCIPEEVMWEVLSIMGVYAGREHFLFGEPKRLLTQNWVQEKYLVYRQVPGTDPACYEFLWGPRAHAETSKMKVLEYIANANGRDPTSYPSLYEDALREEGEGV

One assay deals with interaction between GST-MAGEA11 MHD and FAM-PCF11_4 peptide (MAGE-A11:PCF11) (Homo sapiens (Human), UniProt P43364). Briefly: TR-FRET dose response competition assay for disruption of MAGE-A11:PCF11 binding. As to conditions: Dose response TR-FRET screening of nine scaffold groups against MAGE-A11:PCF11; read-out: consensus IC50. The gist of the method:
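Competition TR-FRET at room temperature in 50 mM Tris pH 7.5, 20 mM MgCl2, 0.1 mg/ml BSA, 1 mM DTT: final 5 nM GST-MAGEA11 MHD, 5 nM Tb-anti-GST, 200 nM FAM-PCF11_4, 90 min. Ratio 520/490 nm converted to % inhibition; IC50 from sigmoidal fit.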
For orientation: In TR-FRET formats the signal depends on donor and acceptor labels being close together.
In the case of `CCCCn1c(=O)[nH]c(=O)c2c1nc(-c1ccc(C)cc1)n2C` [SJ000425093-1], the IC50 came out at 69.9 µM. Same read-out and setting: the value for `CCOc1ccc(N(C(C)=O)C2=C(Cl)C(=O)c3ccccc3C2=O)cc1` [SJ000030567-2] was 69.9 µM; that for `CC(=O)Nc1ccc(NC2=C(Cl)C(=O)c3ccccc3C2=O)cc1` [SJ000024922-1] was 69.9 µM. `CCCn1c(=O)[nH]c(=O)c2c1nc(-c1ccc(F)c(F)c1)n2CCOC` [SJ000460758-1]: the IC50 was found to be 69.9 µM. Still for that read-out and setting: the value for `CCCn1c(=O)[nH]c(=O)c2c1nc(-c1ccc(NC(C)=O)cc1)n2CCN1CCOCC1` [SJ000406218-1] was 69.9 µM; that for `CCCNC1=C(Cl)C(=O)c2ccccc2C1=O` [SJ000141460-3] was 69.9 µM; that for `O=C1OCC(c2ccc(OC(F)F)cc2)=C1c1ccc([N+](=O)[O-])cc1` [SJ000368145-1] was 40.8 µM. For `C=CCn1c(=O)c2c(nc(-c3ccccc3)n2C)n(C)c1=O` [SJ000832270-1], the IC50 was 85.8 µM. Take `COc1cccc(CNCCCNc2ccnc3cc(-c4ccc(F)cc4)ccc23)c1O` [SJ000311239-1]: the IC50 was 33.3 µM.

On to `O=C1c2ccccc2NC(c2ccc(Br)cc2)N1Cc1ccccc1` (stereo not drawn) [SJ000019546-2], for which the IC50 was 69.9 µM. Take `CCCN(CCCCNc1ccnc2cc(Cl)ccc12)Cc1cc(Br)ccc1O` [SJ000311196-1]: the IC50 turned out to be 69.9 µM.

Turning to `CCCn1c(-c2cccc([N+](=O)[O-])c2)nc2c1c(=O)[nH]c(=O)n2Cc1ccccc1` [SJ000376601-1], the IC50 was found to be 69.9 µM.

For `COc1ccc(F)cc1CNCCCNc1ccnc2cc(-c3cc(C(F)(F)F)cc(C(F)(F)F)c3)ccc12` [SJ000311273-1], the IC50 came to 7.69 µM. As to `COc1ccc(C2Nc3ccccc3C(=O)N2CCCN2CCOCC2)cc1OC(F)F` (stereo not drawn) [SJ000803760-1], the IC50 is 72.1 µM. As for `C=CCOc1ccc(-c2nc3c(c(=O)[nH]c(=O)n3CCC)n2CCCC)cc1` [SJ000378878-1], the IC50 worked out at 69.9 µM.

Consider `COc1cccc(CNCCCNc2ccnc3cc(Oc4ccc(Cl)cc4)ccc23)c1O` [SJ000311227-1], for which the IC50 came to 20.7 µM. On the same count and under the same terms, the value for `COc1ccc(-c2nc(C#N)c(N3CC(C)OC(C)C3)o2)cc1` (stereo not drawn) [SJ000478212-1] was 69.9 µM; that for `COc1ccc(F)cc1CNCCCNc1ccnc2cc(C3CCCCC3)ccc12` [SJ000311265-1] was 24.2 µM.

Consider `CCCCOC(=O)c1ccc(NC2=C(Cl)C(=O)c3ccccc3C2=O)cc1` [SJ000024923-1], for which the IC50 came out at 69.9 µM. Regarding `CC(C)CCc1ccc2c(NCCCNCc3cccc4c3OCO4)ccnc2c1` [SJ000311248-1], the IC50 came to 27.7 µM. The same measure, in the same setting: the value for `FC(F)(F)Oc1cccc(CNCCCNc2ccnc3cc(Cl)ccc23)c1` [SJ000521022-2] was 69.9 µM; that for `CCCn1c(=O)[nH]c(=O)c2c1nc(-c1ccc(OC(F)F)cc1)n2CCN1CCOCC1` [SJ000377779-1] was 69.9 µM; that for `COc1ccc(Nc2nc(N)c3ccccc3n2)cc1` [SJ000067204-1] was 69.9 µM.

Turning to `COc1ccc(CNC(=O)Cn2cnc3cc(-c4ccc(OC)cc4)sc3c2=O)cc1` [SJ000441316-1], the IC50 was determined as 69.9 µM. The same measure, in the same setting: to `CCCN1C(=O)c2ccccc2NC1c1c(Cl)cccc1Cl` (stereo not drawn) [SJ000295321-1] belongs 69.9 µM; to `Cc1ccc(CNC(=O)Cn2cnc3cc(-c4ccc(Cl)cc4)sc3c2=O)cc1` [SJ000445272-1], 69.9 µM; to `CCn1c2ccccc2c2cc(CNCc3ccc(OC)cc3)ccc21` [SJ000112430-1], 69.9 µM. The same measure, in the same setting: the value for `O=C1C(Cl)=C(NCCN2CCOCC2)C(=O)c2ncccc21` [SJ000312204-6] was 2.25 µM; that for `c1cc(CNCCCNc2ccnc3cc(C4CCCCC4)ccc23)c2c(c1)OCO2` [SJ000311264-1] was 23.7 µM. As for `CCn1c2ccccc2c2cc(CN3CCc4nnc(CNC(=O)c5ccccc5)n4CC3)ccc21` [SJ000307948-1], the IC50 stood at 69.9 µM. Take `O=C1C(Cl)=C(Nc2ccc(Nc3ccccc3)cc2)C(=O)c2ccccc21` [SJ000299708-1]: the IC50 was 69.9 µM. `COc1ccc(F)cc1CNCCCNc1ccnc2cc(Cc3cc(C)cc(C)c3)ccc12` [SJ000311321-1]: the IC50 was 9.04 µM. With `O=C1c2ccccc2NC(c2ccc(Br)cc2)N1Cc1ccc(Cl)cc1` (stereo not drawn) [SJ000508213-1], the IC50 is 69.9 µM. The same measure, in the same setting: the value for `Cc1ccccc1NC1=C(N)C(=O)c2ccccc2C1=O` [SJ000562551-1] was 72.2 µM; that for `Cc1ccc(S(=O)(=O)c2nc(-c3cccc(C)c3)oc2N2CCOCC2)cc1` [SJ000027480-1] was 11.2 µM; that for `COc1ccc(C(F)(F)F)cc1CNCCCNc1ccnc2cc(C(F)(F)F)ccc12` [SJ000521064-1] was 69.1 µM.

Take `Clc1ccc2c(NCCCNCc3ccc4c(c3)OCO4)ccnc2c1` [SJ000523056-1]: the IC50 is 69.9 µM. For the compound `COc1ccc(OC(F)(F)F)cc1CNCCCNc1ccnc2cc(Cl)ccc12` [SJ000521035-1], the IC50 turned out to be 69.9 µM. Turning to `COc1ccc(F)cc1CNCCCNc1ccnc2cc(CC3CCCCC3)ccc12` [SJ000311253-1], the IC50 is 26.3 µM. On the same count and under the same terms, the value for `Cc1ccc(S(=O)(=O)c2nc(-c3cccc([N+](=O)[O-])c3)oc2N2CCOCC2)cc1` [SJ000027482-1] was 9.54 µM; that for `O=C(NCCO)c1ccc2[nH]c3ccccc3c2c1` [SJ000031065-1] was 69.9 µM; that for `COP(=O)(OC)c1nc(-c2ccc([N+](=O)[O-])cc2)oc1N1CCOCC1` [SJ000092444-1] was 69.9 µM.

Take `COc1ccc(F)cc1CNCCCNc1ccnc2cc(CC(C)C)ccc12` [SJ000311261-1]: the IC50 turned out to be 69.9 µM.

Regarding `c1ccc(Cc2ccc3c(NCCCNCc4cccc5c4OCO5)ccnc3c2)cc1` [SJ000311308-1], the IC50 worked out at 46.1 µM.

Consider `CCOC(=O)N1CCN(Cc2ccc3c(c2)c2ccccc2n3CC)CC1` [SJ000147352-1], for which the IC50 stood at 29.5 µM.

Turning to `Clc1ccc2c(NCCCNCc3ccc4[nH]ccc4c3)ccnc2c1` [SJ000520909-2], the IC50 came to 67.1 µM.

For `CN(C)CCCNC(=O)c1ccc2[nH]c3ccccc3c2c1` [SJ000123281-1], the IC50 came out at 69.9 µM. As for `CCCn1c(-c2ccc(C(=O)OC)cc2)nc2c1c(=O)[nH]c(=O)n2Cc1ccccc1` [SJ000420179-1], the IC50 was found to be 69.9 µM.

As to `CCCN1C(=O)c2ccccc2NC1c1ccc(Cl)cc1Cl` (stereo not drawn) [SJ000288424-2], the IC50 came to 69.9 µM.

On to `CCCN1C(=O)c2ccccc2NC1c1ccccc1F` (stereo not drawn) [SJ000288611-1], for which the IC50 was 69.9 µM.

Consider `CCCN1C(=O)c2ccccc2NC1c1ccc(OC)c(COc2ccc([N+](=O)[O-])c(C)c2)c1` (stereo not drawn) [SJ000295745-1], for which the IC50 stood at 69.9 µM. Turning to `COc1ccc(Cl)cc1Nc1nc(N)c2ccccc2n1` [SJ000200999-1], the IC50 worked out at 69.9 µM. The same measure, in the same setting: to `CCn1c2ccccc2c2cc(CNC3CCCCC3)ccc21` [SJ000550865-1] belongs 69.9 µM. On to `O=S(=O)(c1ccc(Cl)cc1)c1nc(-c2cccc(Br)c2)oc1N1CCOCC1` [SJ000027481-1], for which the half-maximal inhibitory concentration (IC50) came to 9.2 µM. As for `O=[N+]([O-])c1ccc(CNCCCNc2ccnc3cc(Cl)ccc23)cc1O` [SJ000311191-1], the IC50 was 69.9 µM.

`CCCn1c(=O)[nH]c(=O)c2c1nc(-c1ccc(OC)c(C)c1)n2CCOC` [SJ000425187-1]: the IC50 stood at 69.9 µM. For the compound `c1cc(CNCCCNc2ccnc3cc(CC4CCCCC4)ccc23)c2c(c1)OCO2` [SJ000311252-1], the IC50 was determined as 16 µM. `COc1ccc(-c2nc(S(=O)(=O)c3ccc(C)cc3)c(N3CCOCC3)o2)cc1` [SJ000245271-1]: the IC50 came out at 69.9 µM.

The assay is the same for the next values; noted with them: Table 5, dose response TR-FRET screening of 59 quinoline compounds against MAGE-A11:PCF11; read-out: TR-FRET IC50.
With `CCCN(CCCNc1c2ccc(Cl)cc2nc2ccc(OC)cc12)Cc1c(Cl)ccc(Cl)c1Cl` [SJ000523021-1], the IC50 is more than 70 µM. As for `COC1CCC(C(F)(F)F)C1CN(CCCCNc1ccnc2cc(Cl)ccc12)Cc1ccccc1` (stereo not drawn) [SJ000520444-1], the IC50 is more than 70 µM. The same measure, in the same setting: the value for `CCCN(CCCNc1ccnc2cc(C(F)(F)F)ccc12)CC(CC)CC` [SJ000361269-1] was more than 70 µM; that for `CCCN(CCCNc1ccnc2cc(C(F)(F)F)ccc12)Cc1ccc(CC)cc1` [SJ000521009-2] was more than 70 µM.

The same assay, now with this note: Table 8, representative compounds; read-out: TR-FRET IC50.
On to `c1ccc(Cc2ccc3c(NCCCNCc4cccc5c4OCO5)ccnc3c2)cc1` [SJ000311308], for which the IC50 came out at 46.1 µM.

For `COc1cccc(CNCCCNc2ccnc3cc(Oc4ccc(C(C)(C)C)cc4)ccc23)c1O` [SJ000311235], the IC50 stood at 7.65 µM. Take `CN(C)C1=C2C=CC=CC2C(CNCCCNc2ccnc3cc(Cl)ccc23)C=C1` (stereo not drawn) [SJ000520354]: the IC50 worked out at 69.9 µM. The same measure, in the same setting: the value for `Fc1c(F)c(F)c(CNCCCNC2CCNC3(Cl)CCC23)c(F)c1F` (stereo not drawn) [SJ000520910] was 69.9 µM; that for `COc1ccc(-c2ccc3c(NCCCNCc4cccc5c4OCO5)ccnc3c2)cc1` [SJ000311296] was 69.9 µM; that for `COc1cc(Cc2ccc3c(NCCCNCc4cccc5c4OCO5)ccnc3c2)cc(OC)c1` [SJ000311312] was 31.3 µM.

With `COc1ccc(F)cc1CNCCCNc1ccnc2cc(Cl)ccc12` [SJ000000500], the 50% inhibitory concentration (IC50) is 69.9 µM. For the compound `CCC(CC)c1ccc2c(NCCCNCc3cccc(OC)c3O)ccnc2c1` [SJ000311267], the IC50 was 9.95 µM. `COc1ccc(F)cc1CNCCCNc1ccnc2cc(Cc3cc(C)cc(C)c3)ccc12` [SJ000311321]: the IC50 was 9.04 µM. Still for that read-out and setting: to `COc1ccccc1Oc1ccc2c(NCCCNCc3cccc(OC)c3O)ccnc2c1` [SJ000311211] belongs 69.9 µM; to `Fc1cccc(C(F)(F)F)c1CNCCCNc1ccnc2cc(Cl)ccc12` [SJ000521031], 69.9 µM; to `COc1ccc(Oc2ccc3c(NCCCNCc4cccc(OC)c4O)ccnc3c2)cc1` [SJ000311219], 29.1 µM.

`COc1cc(C)c2c(Oc3cccc(C(F)(F)F)c3)c(OC)cc(NC(C)CCCN)c2n1` (stereo not drawn) [SJ000518991]: the IC50 was more than 65.7 µM.

In general, IC50 refers to the point on the concentration scale where inhibition reaches its midpoint.

Values taken from patent US20240246941A1, “SUBSTITUTED 4-(3-AMINOPROP-1-YL)AMINOQUINOLINE ANALOGS AS MODULATORS OF MELANOMA-ASSOCIATED ANTIGEN 11 UBIQUITIN LIGASE” (ST. JUDE CHILDREN'S RESEARCH HOSPITAL, INC., priority 2020, published 2024).
